Measured values: patent publication US6881419B2, “Vitamin formulation for enhancing bone strength” (priority 2002, dated 2005)

Tested on: osteoporosis
Assay: Case Study-1: bone scan, tolerability and energy in a subject with osteoporosis and rheumatoid arthritis
Conditions: person, placed on it at diagnosis of osteoporosis
Excerpt: The exemplary case studies utilize subjects ranging from fifty-one (51) to eighty-three (83) years of age.

Q: For `NCCCC(O)(P(=O)([O-])O)P(=O)(O)O.[Na+]` [Fosimex], which “Tolerability (stomach problems which developed into an ulcer)” value is on record?
A: Its value is “unable to tolerate”.
